From patent US20260199365A1, “BIS-SULFONAMIDE SHIP1 ACTIVATORS” (The Research Foundation for the State University of New York, priority 2022, published 2026) come the findings set out here.

For this assay, the target named is T1, recombinant human truncated SHIP1 (tSHIP1) (Homo sapiens, UniProt Q92835).
T1 construct: tSHIP1 (SHIP1, residues 397-864) was amplified from pET24TEV-tSHIP1; His tag; made in house; host or cells: E. coli BL21
T1 sequence (Q92835 397-864): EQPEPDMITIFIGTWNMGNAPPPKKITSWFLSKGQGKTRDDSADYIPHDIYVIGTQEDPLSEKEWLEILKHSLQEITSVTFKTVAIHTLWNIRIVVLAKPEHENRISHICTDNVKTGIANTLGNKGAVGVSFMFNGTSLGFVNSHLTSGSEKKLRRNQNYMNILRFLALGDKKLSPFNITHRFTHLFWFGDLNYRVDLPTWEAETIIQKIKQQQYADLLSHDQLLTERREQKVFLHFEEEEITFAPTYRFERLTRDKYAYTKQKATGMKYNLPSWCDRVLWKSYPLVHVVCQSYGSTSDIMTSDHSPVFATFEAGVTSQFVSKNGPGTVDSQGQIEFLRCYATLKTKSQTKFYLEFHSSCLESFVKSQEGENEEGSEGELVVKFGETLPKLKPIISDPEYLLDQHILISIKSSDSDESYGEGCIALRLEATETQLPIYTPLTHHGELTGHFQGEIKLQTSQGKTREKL
As to the kind of experiment: Malachite Green Phosphatase Release Assay (SHIP1 phosphatase activity). It is filed as biochemical. Particulars: for Phosphatase activity in the Malachite Green Assay, analog concentration 125 μM: 125 μM analog; for Phosphatase activity in the Malachite Green Assay, analog concentration 125 μM / Phosphatase activity in the Malachite Green Assay, analog concentration 250 μM / Phosphatase activity in the Malachite Green Assay, analog concentration 500 μM: 100 μM PI(3,4,5)P3-diC8 substrate, normalized to vehicle control (DMSO) = 100%; for Phosphatase activity in the Malachite Green Assay, analog concentration 250 μM: 250 μM analog; for Phosphatase activity in the Malachite Green Assay, analog concentration 500 μM: 500 μM analog, >100% activation, <100% inhibition; for Malachite (SHIP1), 125 μM / Malachite (SHIP1), 250 μM / Malachite (SHIP1), 500 μM: bis-sulfonamide hybrids; for SHIP1 activator activity in the malachite green assay: discussion of Table 4 (125-500 μM). The protocol: ^aPhosphatase activity for SHIP1 and SHIP2 enzyme as determined in the malachite green assay. Results were normalized to the phosphatase activity level from vehicle control (DMSO) used as 100% activity. Values >100% are attributed to activation, while values <100% show inhibition of the enzyme compared to the control. The assay was performed at the indicated concentration of the small molecule with 100 μM PI(3,4,5)P3-diC8 as the substrate. ^bnd=not determined, compound 23 was insoluble.
Cloning and expression of tSHIP1 of truncated human SHIP1 protein (tSHIP1) from human whole blood mRNA have been previously described (see Brooks R, Iyer, S., Akada, H., Neelam, S., Russo, C. M., Chisholm, J. D., and Kerr W. G. Coordinate Expansion of Murine Hematopoietic and Mesenchymal Stem Cell Compartments by SHIPi Stem Cells 2015; 33:848). Briefly, tSHIP1 (SHIP1, residues 397-864) was amplified from pET24TEV-tSHIP1. Plasmids were extracted with Midi Prep (Qiagen) and sequences were verified by sequencing of the entire expression regions. The plasmids were then transformed into E. coli BL21 (New England Biolabs). Fresh colonies were amplified in 1 L LB at 37° C., shaking at 250 rpm until OD600 nm reached 0.6. Protein expression was induced with […] IPTG and incubation was continued at 16° C., shaking at 250 rpm for 16 h. Following centrifugation, bacteria pellets were stored overnight at −20° C. Protein was extracted form bacterial cell pellet using BugBuster HT (Millipore), according to manufacturer's recommendations. The His-tagged protein was purified by FPLC using HisTrapHP 5 ml column (Cytiva Life Sciences) at a 5 ml/min flow rate and 10 mM-1M imidazole gradient in Buffer A (20 mM Tris pH 8.0, 300 mM NaCl, 10 mM imidazole, 5 mM β-mercaptoethanol). Fractions containing active protein by Malachite Green Phosphatase Release Assay (Echelon, see below) were pooled, concentrated and buffer exchanged to reduce imidazole concentration by centrifugation using Pierce Protein Concentrators 30KMWCO PES, (ThermoFisher Scientific). Protein was aliquoted and stored at −80° C. in a mixture of Buffer A (without β-ME) and 50% glycerol.
Malachite Green Phosphatase Release Assays: Malachite Green Phosphatase Release Assays (Echelon Biosciences) were performed with recombinant human truncated SHIP1 (tSHIP1) (Brooks, 2015) and SHIP2 (Echelon Biosciences). Briefly, serial dilutions of the compounds dissolved in DMSO were added to the recombinant enzymes diluted in reaction buffer Rx (50 mM Hepes pH 7.4, 150 mM NaCl, 1 mM MgCl2, 0.25 mM EDTA) in triplicate reactions in 96-well plates. Reactions were incubated for 2 min at room temperature. […] of 1 mM Phosphatidylinositol 3,4,5-trisphosphate diC8 (PI(3,4,5)P3diC8) (Echelon Biosciences) was added to each reaction to a final concentration of 100 μM in a final volume of […]. Following 20 min incubation at 37° C., 100 μL of Malachite Green Solution (Echelon Biosciences) was added to each well and plates were incubated at room temperature in the dark for 15 min. Plates were then read at 620 nm on a plate reader (Synergy 2, BioTek).

As to `Cc1sc(S(=O)(=O)N2CCSCC2)cc1NC(=O)[C@@H](NS(=O)(=O)c1ccc(F)cc1)c1ccccc1` [Compound K409, (2S)-2-(4-Fluorobenzenesulfonamido)-N-[2-methyl-5-(thiomorpholine-4-sulfonyl)thiophen-3-yl]-2-phenylacetamide], the “Phosphatase activity in the Malachite Green Assay, analog concentration 125 μM” value came to 94%; the “Phosphatase activity in the Malachite Green Assay, analog concentration 250 μM” value was found to be 107%; the “Phosphatase activity in the Malachite Green Assay, analog concentration 500 μM” value came out at 134%.

As for `O=C(CNS(=O)(=O)c1ccccc1C(F)(F)F)Nc1ccc(S(=O)(=O)N2CCCCC2)cc1` [Compound K427], the “Malachite (SHIP1), 125 μM” value is 80%; the “Malachite (SHIP1), 250 μM” value was found to be 88%; the “Malachite (SHIP1), 500 μM” value is 116%.

Take `CCCCNS(=O)(=O)c1ccc(NC(=O)[C@@H]2CCCN2S(=O)(=O)c2ccccc2C(F)(F)F)cc1` [Compound K424]: the “Malachite (SHIP1), 125 μM” value was found to be 79%; the “Malachite (SHIP1), 250 μM” value came to 84%; the “Malachite (SHIP1), 500 μM” value is recorded as 91%.

For the compound `Cc1sc(S(=O)(=O)N(C)C)cc1NC(=O)CNS(=O)(=O)c1ccc(F)cc1` [Compound K388, N-[5-(Dimethylsulfamoyl)-2-methylthiophen-3-yl]-2-(4-fluorobenzenesulfonamido) acetamide], the “Phosphatase activity in the Malachite Green Assay, analog concentration 125 μM” value stood at 100%; the “Phosphatase activity in the Malachite Green Assay, analog concentration 250 μM” value is 97%; the “Phosphatase activity in the Malachite Green Assay, analog concentration 500 μM” value is recorded as 94%.

Consider `Cc1sc(S(=O)(=O)N2CCCCC2)cc1NC(=O)[C@@H]1CCCN1S(=O)(=O)c1ccc(C(F)(F)F)cc1` [Compound K422], for which the “Malachite (SHIP1), 125 μM” value is recorded as 96%; the “Malachite (SHIP1), 250 μM” value was 103%; the “Malachite (SHIP1), 500 μM” value amounted to 126%.

As to `Cc1sc(S(=O)(=O)N2CCSCC2)cc1NC(=O)CNS(=O)(=O)c1cccc([N+](=O)[O-])c1` [Compound K392, N-[2-methyl-5-(thiomorpholine-4-sulfonyl)thiophen-3-yl]-2-(3-nitrobenzenesulfonamido) acetamide], the “Phosphatase activity in the Malachite Green Assay, analog concentration 250 μM” value was 102%; the “Phosphatase activity in the Malachite Green Assay, analog concentration 500 μM” value was 106%; the “SHIP1 activator activity in the malachite green assay” value (shortened to “SHIP1 activator activity”) is recorded as “disappointing”.

`Cc1sc(S(=O)(=O)N2CCSCC2)cc1NC(=O)CNC(=O)c1ccccc1` [Compound K371, N-[2-methyl-5-(thiomorpholine-4-sulfonyl)thiophen-3-yl]-2-(phenylformamido) acetamide]: the “Phosphatase activity in the Malachite Green Assay, analog concentration 125 μM” value is listed as 97%; the “Phosphatase activity in the Malachite Green Assay, analog concentration 250 μM” value worked out at 94%; the “Phosphatase activity in the Malachite Green Assay, analog concentration 500 μM” value was found to be 83%; the “SHIP1 activator activity” value is “loss of potency”.

With `Cc1sc(S(=O)(=O)N2CCSCC2)cc1NC(=O)[C@@H](C)NS(=O)(=O)c1ccc(F)cc1` [Compound K386, (2R)-2-(4-Fluorobenzenesulfonamido)-N-[2-methyl-5-(thiomorpholine-4-sulfonyl)thiophen-3-yl]propanamide], the “Phosphatase activity in the Malachite Green Assay, analog concentration 250 μM” value is listed as 108% and the “Phosphatase activity in the Malachite Green Assay, analog concentration 500 μM” value is 116%.

Regarding `Cc1sc(S(=O)(=O)N2CCSCC2)cc1NC(=O)CNS(=O)(=O)c1ccccc1` [Compound K376, 2-Benzenesulfonamido-N-[2-methyl-5-(thiomorpholine-4-sulfonyl)thiophen-3-yl]acetamide], the “Phosphatase activity in the Malachite Green Assay, analog concentration 125 μM” value is 104%; the “Phosphatase activity in the Malachite Green Assay, analog concentration 250 μM” value turned out to be 106%; the “Phosphatase activity in the Malachite Green Assay, analog concentration 500 μM” value was 107%; the “SHIP1 activator activity” value is “loss of bioactivity”.

For `O=C(CNS(=O)(=O)c1ccc(C(F)(F)F)cc1)Nc1ccc(S(=O)(=O)N2CCCCC2)cc1` [Compound K426], the “Malachite (SHIP1), 125 μM” value came to 75%; the “Malachite (SHIP1), 250 μM” value is recorded as 63%; the “Malachite (SHIP1), 500 μM” value is on record as 74%.

For `Cc1sc(S(=O)(=O)N2CCSCC2)cc1NC(=O)[C@@H](Cc1ccccc1)NS(=O)(=O)c1ccc(F)cc1` [Compound K395, (2R)-2-(4-Fluorobenzenesulfonamido)-N-[2-methyl-5-(thiomorpholine-4-sulfonyl)thiophen-3-yl]-3-phenylpropanamide], the “Phosphatase activity in the Malachite Green Assay, analog concentration 125 μM” value turned out to be 112%; the “Phosphatase activity in the Malachite Green Assay, analog concentration 250 μM” value was 106%; the “Phosphatase activity in the Malachite Green Assay, analog concentration 500 μM” value came out at 106%.

On to `Cc1sc(S(=O)(=O)N2CCCCC2)cc1NC(=O)[C@@H]1CCCN1S(=O)(=O)c1ccccc1C(F)(F)F` [Compound K421], for which the “Malachite (SHIP1), 125 μM” value was found to be 96%; the “Malachite (SHIP1), 250 μM” value was found to be 122%; the “Malachite (SHIP1), 500 μM” value is 158%.

On to `CCCCNS(=O)(=O)c1ccc(NC(=O)[C@@H]2CCCN2S(=O)(=O)c2ccc(C(F)(F)F)cc2)cc1` [Compound K425], for which the “Malachite (SHIP1), 125 μM” value is on record as 75%; the “Malachite (SHIP1), 250 μM” value turned out to be 80%; the “Malachite (SHIP1), 500 μM” value worked out at 81%.

Take `Cc1sc(S(=O)(=O)N2CCSCC2)cc1NC(=O)CNC(=O)OCc1ccccc1` [Compound K373, Benzyl N-({[2-methyl-5-(thiomorpholine-4-sulfonyl)thiophen-3-yl]carbamoyl}methyl) carbamate]: the “Phosphatase activity in the Malachite Green Assay, analog concentration 125 μM” value came out at 93%; the “Phosphatase activity in the Malachite Green Assay, analog concentration 250 μM” value turned out to be 102%; the “Phosphatase activity in the Malachite Green Assay, analog concentration 500 μM” value is recorded as 105%; the “SHIP1 activator activity” value was “loss of potency”.

On to `O=C(CNS(=O)(=O)c1ccc(F)cc1)Nc1cccc(S(=O)(=O)N2CCSCC2)c1` [Compound K400, 2-(4-Fluorobenzenesulfonamido)-N-[3-(thiomorpholine-4-sulfonyl)phenyl]acetamide], for which the “Phosphatase activity in the Malachite Green Assay, analog concentration 125 μM” value turned out to be 94%; the “Phosphatase activity in the Malachite Green Assay, analog concentration 250 μM” value is reported as 97%; the “Phosphatase activity in the Malachite Green Assay, analog concentration 500 μM” value was 107%; the “SHIP1 activator activity” value is given as “less active”.

Turning to `Cc1sc(S(=O)(=O)N2CCSCC2)cc1N` [Compound K381], the “Phosphatase activity in the Malachite Green Assay, analog concentration 125 μM” value turned out to be 109%; the “Phosphatase activity in the Malachite Green Assay, analog concentration 250 μM” value is 107%; the “Phosphatase activity in the Malachite Green Assay, analog concentration 500 μM” value worked out at 113%; the “SHIP1 activator activity” value was “reduced effect on SHIP activation”.

As for `O=C(Nc1ccc(S(=O)(=O)N2CCCCC2)cc1)[C@@H]1CCCN1S(=O)(=O)c1ccccc1C(F)(F)F` [Compound K420], the “Malachite (SHIP1), 125 μM” value stood at 99%; the “Malachite (SHIP1), 250 μM” value is reported as 112%; the “Malachite (SHIP1), 500 μM” value stood at 138%.
